The compounds below were run against PLpro of SARS-CoV-2 (Severe acute respiratory syndrome coronavirus 2, UniProt P0DTD1) (assay: Enzyme activity test in vitro: inhibition of PLpro at fixed concentration 50 μM (RLRGG-AMC substrate)). Conditions: read-out: Inhibition rate at 50 μM (%).
Format: biochemical
Compound `O=C(O)c1ccc(Nc2c(-c3cccc(Br)c3)nc3cnccn23)cc1` [P18234, 4-[[2-(3-bromophenyl)imidazo[1,2-a]pyrazin-3-yl]amino] benzoic acid] has an inhibition at 50 µM of 20.5%. `COc1ccc(-c2nc3cnccn3c2Nc2ccc3c(c2)OCO3)cc1OC` [P19444, N-(1,3-benzodioxol-5-yl)-2-(3,4-dimethoxy-phenyl)imidazo [1,2-a]pyrazin-3-amine] gave an inhibition at 50 µM of 42.2%. Compound `CN(C)c1ccc(-c2nc3cnccn3c2Nc2cccc(C(=O)O)c2)cc1` [P19447, 3-[[2-[4-(dimethyl-amino)phenyl]imidazo [1,2-a]pyrazin-3-yl]amino]benzoic acid] has an inhibition at 50 µM of 42.1%. Work on `O=C(O)c1cccc(Nc2c(-c3cccc(Cl)c3)nc3cnccn23)c1` [P19457, 3-[[2-(3-chlorophenyl)imidazo[1,2-a]pyrazin-3-yl]amino] benzoic acid] yielded an inhibition at 50 µM of 39.7%. `COc1ccc(-c2nc3cnccn3c2Nc2ccccc2C)cc1OC` [P19463, 2-(3,4-dimethoxy-phenyl)-N-(2-methylphenyl)imidazo[1,2-a]pyrazin-3-amine] was tested, and the inhibition at 50 µM was 40.7%. `CNC(=O)c1ccc(Nc2c(-c3ccc(OC)c(OC)c3)nc3cnccn23)cc1` [P19464, 4-[[2-(3,4-dimethoxy-phenyl)imidazo[1,2-a]pyrazin-3-yl]amino]-N-methyl-benzamide] showed an inhibition at 50 µM of 42.2%. `Cc1ccc(-c2nc3cnccn3c2Nc2ccc(C(=O)O)cc2)cc1` [P19465, 4-[[2-(4-methyl-phenyl)imidazo[1,2-a]pyrazin-3-yl]amino] benzoic acid] was tested, and the inhibition at 50 µM was 15.9%. Compound `COC(=O)c1cccc(Nc2c(-c3cc(Br)ccc3O)nc3cnccn23)c1` [P19466, methyl 3-[[2-(5-bromo-2-hydroxyphenyl)imidazo [1,2-a]pyrazin-3-yl]amino]benzoate] has an inhibition at 50 µM of 31.9%. Work on `O=C(O)c1cccc(Nc2c(-c3cccc(Br)c3)nc3cnccn23)c1` [P19467, 3-[[2-(3-bromophenyl)imidazo[1,2-a]pyrazin-3-yl]amino] benzoic acid] yielded an inhibition at 50 µM of 27.3%. For `CNC(=O)c1ccc(Nc2c(-c3ccc(OC)cc3)nc3cnccn23)cc1` [P19472, 4-[[2-(4-methoxy-phenyl)imidazo[1,2-a]pyrazin-3-yl]amino]-N-methylbenzamide], the inhibition at 50 µM was 28.1%. Work on `COc1ccc(-c2nc3cnccn3c2Nc2ccc(C(C)C)cc2)cc1OC` [P19473, 2-(3,4-dimethoxy-phenyl)-N-(4-propan-2-ylphenyl)imidazo [1,2-a]pyrazin-3-amine] yielded an inhibition at 50 µM of 37.5%. In the case of `CN(C)c1ccc(-c2nc3cnccn3c2Nc2ccc(C(=O)O)cc2)cc1` [P19475, 4-[[2-[4-(dimethyl-amino)phenyl]imidazo [1,2-a]pyrazin-3-yl]amino]benzoic acid], the inhibition at 50 µM was 35.1%. With `COC(=O)c1cccc(Nc2c(-c3ccccc3)nc3cnccn23)c1` [P19476, methyl 3-[(2-phenylimidazo [1,2-a]pyrazin-3-yl)amino]benzoate] the inhibition at 50 µM was 34%. `O=C(O)c1cccc(Nc2c(-c3ccc(F)cc3)nc3cnccn23)c1` [P19477, 3-[[2-(4-fluorophenyl)imidazo[1,2-a]pyrazin-3-yl]amino] benzoic acid] showed an inhibition at 50 µM of 5.91%. Compound `CNC(=O)c1ccc(Nc2c(-c3ccc(C)cc3)nc3cnccn23)cc1` [P19482, N-methyl-4-[[2-(4-methylphenyl)imidazo [1,2-a]pyrazin-3-yl]amino]benzamide] has an inhibition at 50 µM of 34.1%. With `COc1ccc(-c2nc3cnccn3c2Nc2c(C)cccc2C)cc1OC` [P19483, 2-(3,4-dimethoxy-phenyl)-N-(2,6-di-methylphenyl)imidazo [1,2-a]pyrazin-3-amine] the inhibition at 50 µM was 37.8%. In the case of `COC(=O)c1ccc(-c2nc3cnccn3c2Nc2ccc(Cl)cc2)cc1` [P19484, methyl 4-[3-(4-chloroanilino)imidazo[1,2-a]pyrazin-2-yl]benzoate], the inhibition at 50 µM was 42.4%. `COC(=O)c1cccc(Nc2c(-c3ccc(OC)cc3)nc3cnccn23)c1` [P19485, methyl 3-[[2-(4-methoxy-phenyl)imidazo[1,2-a]pyrazin-3-yl]amino] benzoate] gave an inhibition at 50 µM of 36%. `COc1ccc(-c2nc3cnccn3c2Nc2cccc(C(=O)O)c2)cc1` [P19486, 3-[[2-(4-methoxy-phenyl)imidazo[1,2-a]pyrazin-3-yl]amino] benzoic acid] was tested, and the inhibition at 50 µM was 40.1%. Compound `O=C(O)c1cccc(Nc2c(-c3cc(Br)ccc3O)nc3cnccn23)c1` [P19487, 3-[[2-(5-bromo-2-hydroxyphenyl)imidazo [1,2-a]pyrazin-3-yl]amino]benzoic acid] has an inhibition at 50 µM of 27.3%. `NC(=O)c1cccc(Nc2c(-c3ccc(Cl)cc3)nc3cnccn23)c1` [P19492, 3-[[2-(4-chlorophenyl)imidazo[1,2-a]pyrazin-3-yl]amino] benzamide] gave an inhibition at 50 µM of 35.4%. With `COc1ccc(Nc2c(-c3ccc(OC)c(OC)c3)nc3cnccn23)cc1` [P19493, 2-(3,4-dimethoxy-phenyl)-N-(4-methoxy-phenyl)imidazo[1,2-a]pyrazin-3-amine] the inhibition at 50 µM was 32.3%. `COC(=O)c1ccc(-c2nc3cnccn3c2Nc2cccc(C(=O)OC)c2)cc1` [P19494, methyl 3-[[2-(4-methoxy-carbonylphenyl)imidazo [1,2-a]pyrazin-3-yl]amino]benzoate] gave an inhibition at 50 µM of 25.4%. `COC(=O)c1cccc(Nc2c(-c3ccc(SC)cc3)nc3cnccn23)c1` [P19495, methyl 3-[[2-(4-methyl-sulfanylphenyl)imidazo [1,2-a]pyrazin-3-yl]amino]benzoate] gave an inhibition at 50 µM of 41.7%. In the case of `O=C(O)c1cccc(Nc2c(-c3ccc(O)cc3)nc3cnccn23)c1` [P19496, 3-[[2-(4-hydroxy-phenyl)imidazo[1,2-a]pyrazin-3-yl]amino] benzoic acid], the inhibition at 50 µM was 40.5%. With `O=C(O)c1cccc(Nc2c(-c3ccccc3)nc3cnccn23)c1` [P19497, 3-[(2-phenylimidazo [1,2-a]pyrazin-3-yl)amino]benzoic acid] the inhibition at 50 µM was 31.2%. Compound `CSc1ccc(-c2nc3cnccn3c2Nc2cccc(C(N)=O)c2)cc1` [P19502, 3-[[2-(4-methyl-sulfanylphenyl)imidazo [1,2-a]pyrazin-3-yl]amino]benzamide] has an inhibition at 50 µM of 39.1%. With `COc1ccc(-c2nc3cnccn3c2Nc2ccc(Cl)cc2)cc1OC` [P19503, N-(4-chlorophenyl)-2-(3,4-dimethoxy-phenyl)imidazo[1,2-a]pyrazin-3-amine] the inhibition at 50 µM was 43.6%. `CCOC(=O)c1ccc(Nc2c(-c3ccc(O)cc3)nc3cnccn23)cc1` [P19504, ethyl 4-[[2-(4-hydroxy-phenyl)imidazo[1,2-a]pyrazin-3-yl]amino] benzoate] gave an inhibition at 50 µM of 32.6%. With `COC(=O)c1cccc(Nc2c(-c3ccc(O)c(OC)c3)nc3cnccn23)c1` [P19505, methyl 3-[[2-(4-hydroxy-3-methoxyphenyl)imidazo [1,2-a]pyrazin-3-yl]amino]benzoate] the inhibition at 50 µM was 44.7%. `COc1cc(-c2nc3cnccn3c2Nc2cccc(C(=O)O)c2)ccc1O` [P19506, 3-[[2-(4-hydroxy-3-methoxyphenyl)imidazo [1,2-a]pyrazin-3-yl]amino]benzoic acid] was tested, and the inhibition at 50 µM was 34%. Compound `CNC(=O)c1cccc(Nc2c(-c3ccc(Cl)cc3)nc3cnccn23)c1` [P19512, 3-[[2-(4-chlorophenyl)imidazo[1,2-a]pyrazin-3-yl]amino]-N-methylbenzamide] has an inhibition at 50 µM of 41.6%. `CCc1cccc(C)c1Nc1c(-c2ccc(OC)c(OC)c2)nc2cnccn12` [P19513, 2-(3,4-dimethoxy-phenyl)-N-(2-ethyl-6-methylphenyl)imidazo [1,2-a]pyrazin-3-amine] showed an inhibition at 50 µM of 38.8%. In the case of `COc1ccc(-c2nc3cnccn3c2Nc2ccc(C(=O)O)cc2)cc1` [P19514, 4-[[2-(4-methoxy-phenyl)imidazo[1,2-a]pyrazin-3-yl]amino] benzoic acid], the inhibition at 50 µM was 36%. For `COC(=O)c1cccc(Nc2c(-c3ccc(C)cc3)nc3cnccn23)c1` [P19515, methyl 3-[[2-(4-methyl-phenyl)imidazo[1,2-a]pyrazin-3-yl]amino] benzoate], the inhibition at 50 µM was 37.1%. Compound `O=C(O)c1cccc(Nc2c(-c3ccc(Cl)cc3)nc3cnccn23)c1` [P19516, 3-[[2-(4-chlorophenyl)imidazo[1,2-a]pyrazin-3-yl]amino] benzoic acid] has an inhibition at 50 µM of 32.8%. Work on `CCNC(=O)c1ccc(Nc2c(-c3ccc(Cl)cc3)nc3cnccn23)cc1` [P22402, 4-[[2-(4-chlorophenyl)imidazo[1,2-a]pyrazin-3-yl]amino]-N-ethylbenzamide] yielded an inhibition at 50 µM of 31.3%. Work on `COc1ccc(-c2nc3cnccn3c2Nc2ccc(C(=O)NCCN3CCOCC3)cc2)cc1` [P22403, 4-[[2-(4-methoxy-phenyl)imidazo[1,2-a]pyrazin-3-yl]amino]-N-(2-morpholin-4-ylethyl)benzamide] yielded an inhibition at 50 µM of 31.7%. In the case of `O=C(NC1CCCCC1)c1ccc(Nc2c(-c3ccccc3)nc3cnccn23)cc1` [P22404, N-cyclohexyl-4-[(2-phenylimidazo[1,2-a]pyrazin-3-yl)amino] benzamide], the inhibition at 50 µM was 26.1%. `COc1ccc(-c2nc3cnccn3c2Nc2ccc(C(=O)N3CCOCC3)cc2)cc1` [P22405, [4-[[2-(4-methoxy-phenyl)imidazo[1,2-a]pyrazin-3-yl]amino]phenyl]-morpholin-4-ylmethanone] gave an inhibition at 50 µM of 36.5%. With `CN(C)c1ccc(-c2nc3cnccn3c2Nc2cccc(C(N)=O)c2)cc1` [P22406, 3-[[2-[4-(dimethyl-amino)phenyl]imidazo [1,2-a]pyrazin-3-yl]amino]benzamide] the inhibition at 50 µM was 37.2%. For `CC(C)NC(=O)c1cccc(Nc2c(-c3ccc(Cl)cc3)nc3cnccn23)c1` [P22407, 3-[[2-(4-chlorophenyl)imidazo[1,2-a]pyrazin-3-yl]amino]-N-propan-2-ylbenzamide], the inhibition at 50 µM was 32.6%. With `O=C(NCC1CCCO1)c1cccc(Nc2c(-c3ccc(Cl)cc3)nc3cnccn23)c1` (stereo not drawn) [P22408, 3-[[2-(4-chlorophenyl)imidazo[1,2-a]pyrazin-3-yl]amino]-N-(oxolan-2-ylmethyl)benzamide] the inhibition at 50 µM was 17.3%. `O=C(c1cccc(Nc2c(-c3ccccc3)nc3cnccn23)c1)N1CCOCC1` [P22409, morpholin-4-yl-[3-[(2-phenylimidazo [1,2-a]pyrazin-3-yl)amino]phenyl] methanone] gave an inhibition at 50 µM of 28.2%. For `CCNC(=O)c1ccc(Nc2c(-c3ccc(OC)c(OC)c3)nc3cnccn23)cc1` [P22410, 4-[[2-(3,4-dimethoxy-phenyl)imidazo[1,2-a]pyrazin-3-yl]amino]-N-ethylbenzamide], the inhibition at 50 µM was 42.2%.

— patent publication US20250032485A1, “APPLICATION OF IMIDAZO [1,2-A] PYRAZINE COMPOUNDS OR THEIR PHARMACEUTICALLY ACCEPTABLE SALTS IN THE PREPARATION OF ANTI-CORONAVIRUS DRUGS” (GUANGZHOU MEDICAL UNIVERSITY, priority 2023, published 2025)
